Experiment [1] addresses T1, dopamine D2 receptor (Homo sapiens, UniProt P14416).
T1 construct: expressed in transfected cells
The experiment is described as follows: Dopamine D2 receptor binding assay (displacement of [125I]-iodospiperone). As to conditions: dopamine D2 receptor membranes, HEK293; read-out: KD of radioligand (saturation binding experiments). The protocol: (§1) 1. Preparation of Membranes by Ultrasonic Treatment and Differential Centrifugation
The pellets were stored at −80° C. until use. […] (Beckman Ultrazentrifuge XL 80).
(§2) 2. Receptor Binding Experiments
a) Dopamine D2 Receptor Binding Assay
Non-specific binding was defined with 1 μM haloperidol.

Experiment [2] deals with T2, h-5-HT6 receptor (Homo sapiens, UniProt P50406).
T2 construct: expressed in transfected cells
Description: 5-HT6 receptor binding assay (displacement of [3H]-LSD). As to conditions: membranes of HEK293 cells expressing h-5-HT6 receptor, 1 nM [3H]-LSD; read-out: Ki(5HT6). On the procedure:
Displacement of radioligands binding to the following cloned human receptors
as §1
Cells from stable clonal cell lines expressing the corresponding receptor (5-HT6, α1-adrenergic, dopamine D2 or histamine H1 receptors) were washed with PBS (w/o Ca^++, Mg^++) and harvested in PBS with 0.02% EDTA. The cells were collected by centrifugation at 500 g for 10 min. at 4° C., washed with PBS and centrifuged (500 g, 10 min. 4° C.). The pellets were stored at −80° C. until use. F or membrane preparation, the thawed cell pellet was resuspended in ice-cold sucrose buffer (0.25 M sucrose, 10 mM Hepes (pH 7.4), 1 mM Phenylmethylsulfonyl fluoride (PMSF) in DMSO, 5 μg/ml Pepstatin-A, 3 mM EDTA, 0.025% Bacitracin) and homogenized with a Branson Sonifier W-250 (Settings: Timer 4; Output Control 3; Duty Cycle constant; 2 to 3 cycles). Cell disruption was checked with the aid of a microscope. Remaining unbroken cells were pelleted at 1.000 g for 10 min. at 4° C. The sucrose buffer supernatant was then centrifuged at 60.000 g for 1 h at 4° C. (Beckman Ultrazentrifuge XL 80). The pellet was resuspended in 30 ml ice-cold Tris buffer (20 mM TRIS (pH 7.4), 5 μg/ml Pepstatin A, 0.1 mM PMSF, 3 mM EDTA) by pipetting through a 10 ml serological pipet and centrifuged for 1 h at 4° C. at 60.000 g. A final resuspension was performed in a small volume of ice-cold Tris buffer (see above) by pressing through a serological pipet followed by ultrasonic treatment with a Branson Sonifier W-250 (Settings: Timer 1; Output Control 3; Duty Cycle constant; 1 cycle). Protein concentration was determined (BCA-Kit; Pierce) and aliquots stored at −80° C. or in liquid nitrogen for long-term storage.
as §2
All receptor binding experiments were carried out in the corresponding assay buffer in a total volume of 200 μl in the presence of various concentrations of test compound (10^−5 M to 10^−9 M, tenfold serial dilution, duplicate determinations). The assays were terminated by filtration on polyethylenimine (PEI 0.1% or 0.3%) presoaked Packard Unifilter Plates (GF/C or GF/B) with a Tomtec Machill U 96 well-plate harvester. After the plates had been dried for 2 h at 55° C. in a drying chamber scin tillation cocktail (BetaPlate Scint; PerkinElmer) was added. Radioactivity was measured in a Microbeta Trilux two hours after the addition of the scintillation mixture. Data derived from liquid scintillation counting were analysed by iterative non-linear regression analysis with the use of the Statistical Analysis System (SAS): a program similar to “LIGAND” as described by Munson and Rodbard (Analytical Biochemistry 107, 220-239 (1980).
a) 5-HT6 Receptor Binding Assay
HEK293 cells stably expressing the h-5-HT6 receptor (NCBI Reference Sequence XM 001435) were cultured in RPMI1640 medium supplemented with 25 mM HEPES, 10% fetal calf serum and 1-2 mM glutamine. The membrane preparation was performed as described in section 1. […] Non-specific binding was defined with 1 μM methiothepin. The binding reaction was carried out for 3.5 h at room temperature. During the incubation, the plates were shaken on a plate shaker at 100 rpm and terminated by filtration on Packard Unifilter GF/C (0.1% PEI) plates, followed by 2 wash cycles with ice-cold 50 mM Tris-HCl, 5 mM CaCl2.
Data derived from liquid scintillation counting were analyzed by iterative non-linear regression analysis with the use of the Statistical Analysis System (SAS): a program similar to “LIGAND” as described by Munson and Rodbard (Anal. Biochem. 1980, 107, 220-239). Fitting was performed according to formulae described by Feldman (Anal. Biochem. 1972, 48, 317-338). IC50, nH and Ki values were expressed as geometrical mean.

Structures can show the parent of a compound that is named as a salt.

T2 sequence (P50406 whole entry): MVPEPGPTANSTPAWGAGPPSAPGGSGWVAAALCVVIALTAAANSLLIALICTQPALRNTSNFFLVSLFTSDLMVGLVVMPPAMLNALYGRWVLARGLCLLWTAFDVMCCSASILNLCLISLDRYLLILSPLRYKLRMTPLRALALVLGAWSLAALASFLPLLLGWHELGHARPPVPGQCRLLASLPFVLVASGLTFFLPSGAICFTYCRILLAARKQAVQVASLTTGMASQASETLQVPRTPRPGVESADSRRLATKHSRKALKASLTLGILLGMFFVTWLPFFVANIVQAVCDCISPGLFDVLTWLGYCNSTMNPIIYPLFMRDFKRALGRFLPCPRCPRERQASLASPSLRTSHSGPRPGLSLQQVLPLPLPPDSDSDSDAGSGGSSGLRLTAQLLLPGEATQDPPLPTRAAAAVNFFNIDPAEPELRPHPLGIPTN
T1 sequence (P14416 whole entry): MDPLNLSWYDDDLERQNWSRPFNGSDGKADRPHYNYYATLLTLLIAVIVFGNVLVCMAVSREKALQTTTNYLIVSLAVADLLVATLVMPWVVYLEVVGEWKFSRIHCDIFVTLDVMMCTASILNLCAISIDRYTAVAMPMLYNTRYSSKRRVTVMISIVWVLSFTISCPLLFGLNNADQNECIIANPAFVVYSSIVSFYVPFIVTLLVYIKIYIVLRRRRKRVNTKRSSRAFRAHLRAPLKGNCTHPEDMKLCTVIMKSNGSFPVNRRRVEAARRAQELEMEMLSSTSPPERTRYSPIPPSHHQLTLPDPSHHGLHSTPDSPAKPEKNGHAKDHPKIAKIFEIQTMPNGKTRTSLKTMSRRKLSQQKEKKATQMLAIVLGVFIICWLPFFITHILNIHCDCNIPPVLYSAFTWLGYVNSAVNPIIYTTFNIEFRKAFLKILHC

iodospiperone [[^125I]-iodospiperone]: the Kd in experiment [1] was 0.22 nM.
In the case of `COc1c(F)cc(NS(=O)(=O)c2cccc3c2OC(F)(F)O3)cc1N1CCNCC1` [Example 10, 2,2-Difluoro-benzo[1,3]dioxole-4-sulfonic acid (3-fluoro-4-methoxy-5-piperazin-1-yl-phenyl)-amide Hydrochloride], in experiment [2], the inhibitory constant (Ki) is under 10 nM.
Still for that read-out and setting: the figure for `COc1ccc(N(C)S(=O)(=O)c2cccc3c2OC(F)(F)O3)cc1N1CCN(C)CC1` [Example 21, 2,2-Difluoro-benzo[1,3]dioxole-4-sulfonic acid [4-methoxy-3-(4-methyl-piperazin-1-yl)-phenyl]-methyl-amide Hydrochloride] is under 50 nM; for `O=S(=O)(Nc1ccc(OC(F)F)c(N2CCNCC2)c1)c1ccccc1OC(F)F` [Example 7, 2-Difluoromethoxy-N-(3-piperazin-1-yl-4-difluoromethoxy-phenyl)-benzenesulfonamide Trifluoroacetate] it is under 50 nM.

The values above are taken from US7790727B2, “Benzenesulfonanilide compounds suitable for treating disorders that respond to modulation of the serotonin 5-HT6 receptor” (Abbott GmbH & Co. KG, priority 2007, dated 2010).
